From PubChem BioAssay (NCI)
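The compound was tested at five concentrations on cells cultured in 96-well plates, with a 48-hour exposure period. GI50 marks 50% less growth. The concentration for full growth arrest is given as TGI.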

Experiments:
Assay in all cases: DTP human tumour cell line panel, 48 h
A549 NSCLC = system: A549 NSCLC
DU-145 prostate = system: DU-145 prostate
EKVX NSCLC = system: EKVX NSCLC
HCC-2998 colon = system: HCC-2998 colon
K-562 leukemia = system: K-562 leukemia
MDA-MB-435 = system: MDA-MB-435
NCI-H460 lung = system: NCI-H460 lung
OVCAR-4 ovarian = system: OVCAR-4 ovarian
OVCAR-5 ovarian = system: OVCAR-5 ovarian
SNB-75 CNS = system: SNB-75 CNS

SMILES	TGI (A549 NSCLC)	TGI (DU-145 prostate)	TGI (EKVX NSCLC)	TGI (HCC-2998 colon)	TGI (K-562 leukemia)	TGI (MDA-MB-435)	TGI (NCI-H460 lung)	TGI (OVCAR-4 ovarian)	TGI (OVCAR-5 ovarian)	TGI (SNB-75 CNS)	GI50 (A549 NSCLC)	GI50 (DU-145 prostate)	GI50 (EKVX NSCLC)	GI50 (HCC-2998 colon)	GI50 (K-562 leukemia)	GI50 (MDA-MB-435)	GI50 (NCI-H460 lung)	GI50 (OVCAR-4 ovarian)	GI50 (OVCAR-5 ovarian)	GI50 (SNB-75 CNS)
COC(=O)C1(N2CCOCC2)CCC([C@@H](c2ccccc2)C(C)[N+](=O)[O-])C1 (stereo not given in full)	> 100 µM	59.6 µM	> 100 µM	> 100 µM	> 100 µM	> 100 µM	> 100 µM	> 100 µM	> 100 µM	> 100 µM	–	–	–	–	–	–	–	–	–	–
CC(=O)OCc1cc[c]([Hg][Cl])o1	43.2 µM	26.4 µM	28.2 µM	29.2 µM	10.3 µM	15.5 µM	45.6 µM	43 µM	30.2 µM	51.4 µM	21.8 µM	13.6 µM	12.4 µM	15.4 µM	0.991 µM	3.54 µM	15.5 µM	12.7 µM	11.8 µM	12.8 µM
CC#CC#C/C=C1/C=CC2(CCCCO2)O1 (stereo not given)	> 100 µM	> 100 µM	> 100 µM	> 100 µM	> 100 µM	> 100 µM	> 100 µM	> 100 µM	> 100 µM	> 100 µM	–	–	–	–	–	–	–	–	–	–
N/C(=N/O)NOCCC(N)C(=O)O (stereo not given)	> 100 µM	> 100 µM	> 100 µM	> 100 µM	> 100 µM	> 100 µM	> 100 µM	> 100 µM	> 100 µM	> 100 µM	> 100 µM	> 100 µM	> 100 µM	> 100 µM	> 100 µM	> 100 µM	> 100 µM	> 100 µM	> 100 µM	> 100 µM
COc1ccc(CC2OC3(CCCCC3)CC3CCCCN32)cc1 (stereo not given)	> 100 µM	> 100 µM	> 100 µM	> 100 µM	> 100 µM	> 100 µM	> 100 µM	> 100 µM	> 100 µM	> 100 µM	–	–	–	–	–	–	–	–	–	–
NS(=O)(=O)c1ccc(NC(=O)Nc2cccc3ccccc23)cc1	> 100 µM	81.3 µM	80.8 µM	> 100 µM	> 100 µM	> 100 µM	> 100 µM	> 100 µM	> 100 µM	57.7 µM	–	–	–	–	–	–	–	–	–	–
Nc1ncnc2c1ncn2Cc1ccc(CCl)cc1	35.1 µM	50.7 µM	34.9 µM	29 µM	> 100 µM	32.9 µM	41.1 µM	38.3 µM	35.2 µM	62.6 µM	17.1 µM	19 µM	17 µM	14.2 µM	14.9 µM	15.4 µM	17 µM	19.4 µM	18.8 µM	22.3 µM
Clc1ccc(Nc2nnc(COc3ccccc3)c3ccccc23)cc1	12.3 µM	10.5 µM	7.32 µM	8.36 µM	11.9 µM	5.31 µM	7.12 µM	25 µM	15.4 µM	6.65 µM	2.87 µM	2.65 µM	0.679 µM	3.81 µM	1.85 µM	1.01 µM	2.7 µM	2.09 µM	3.88 µM	0.498 µM
COc1cc(/C=C/[N+](=O)[O-])cc(OC)c1	16.8 µM	4.03 µM	27.1 µM	3.59 µM	9.09 µM	10.3 µM	10.5 µM	17.3 µM	13.4 µM	16.7 µM	3.94 µM	1.97 µM	4.05 µM	1.98 µM	1.75 µM	2.99 µM	3.51 µM	4.87 µM	3.66 µM	3.82 µM
CS(=O)(=O)Nc1cc(-c2ccc3ncnc(Nc4ccc(OCc5ccccn5)c(Cl)c4)c3c2)cnc1Cl	5.48 µM	> 100 µM	3.46 µM	3.31 µM	> 100 µM	2.78 µM	> 100 µM	> 100 µM	4.58 µM	0.797 µM	1.09 µM	0.52 µM	0.313 µM	1.13 µM	1.29 µM	0.376 µM	0.502 µM	1.49 µM	0.325 µM	0.0438 µM
O=C(O)[C@@H](Cc1ccccc1)NS(=O)(=O)c1ccc(-c2ccccc2)cc1	> 100 µM	> 100 µM	> 100 µM	> 100 µM	> 100 µM	> 100 µM	> 100 µM	> 100 µM	> 100 µM	> 100 µM	> 100 µM	> 100 µM	> 100 µM	> 100 µM	> 100 µM	> 100 µM	> 100 µM	> 100 µM	> 100 µM	> 100 µM
Cc1ccc(O)c(C(=O)/C=C/c2ccccc2)c1	> 100 µM	> 100 µM	> 100 µM	> 100 µM	> 100 µM	> 100 µM	> 100 µM	> 100 µM	> 100 µM	> 100 µM	–	–	–	–	–	–	–	–	–	–
